Patent publication US6730707B2, “Method for reducing intraocular pressure using indole derivatives” (Inspire Pharmaceuticals, Inc., priority 2000, dated 2004)
Read-outs that look alike come from different tables or passages of the source.

System: New Zealand white rabbits
Test: Effects on intraocular pressure (IOP) in rabbits, TONOPEN contact tonometer, topical unilateral application
Assay type: in vivo, rabbit
Settings: for maximal reduction of IOP / IC50: topical; for maximal reduction of IOP: n=8; for IC50: Oryctolagus cuniculus; for persistence of the IOP-lowering effect / time at which the maximal effect on IOP was observed: after topical application; for IOP-lowering effect after pretreatment with luzindole: luzindole 100 μg/10 μL applied 30 min before (FIG. 4)
Description: IOP was measured using a TONOPEN contact tonometer supplied by Xomed (Jacksonville, Fla., USA). Ten microliters of the agents were applied topically and unilaterally to the cornea, whereas the contralateral eye received the same volume of saline solution. The corneas were anesthetized to avoid any discomfort associated with the use of the tonometer. Two measurements were made before application of the agents. Melatonin (Sigma, St. […] A single dose was tested in a single animal on a single day.

SMILES	maximal reduction of IOP (5-MCA-NAT, maximal at 100 pg/10 μL)	IC50 (read-out: IC50 for lowering IOP)	IC50 (read-out: IC50 for lowering IOP, equivalent dose)	persistence of the IOP-lowering effect	time at which the maximal effect on IOP was observed	maximal IOP response relative to melatonin (comparison of maximal responses)	IOP-lowering effect after pretreatment with luzindole	effect on IOP when applied alone (100 μg/10 μL, over a duration of six hours)	IC50 (equivalent of the IC50 dose (FIG. 3), read-out: IC50 for lowering IOP, equivalent dose)	IC50 for lowering IOP (dose-response 10 pg/10 μL to 1 mg/10 μL, topical (FIG. 3))	maximal reduction of IOP (melatonin, maximal at 10 μg/10 μL)
COC(=O)Nc1ccc2[nH]cc(CCNC(C)=O)c2c1 [Example 5-MCA-NAT, 5-(methoxycarbonylamino)-N-acetyltryptamine]	43.1±3.65%	423 ± 30 µg/mL	1.8 ± 0.1 nM	10 h	2 h	almost twice	abolished				
CC(=O)NCCc1c(Cc2ccccc2)[nH]c2ccccc12 [luzindole]								had no effect			
COc1ccc2[nH]cc(CCNC(C)=O)c2c1 [melatonin]				3 h	1 h		abolished		1.6 ± 0.1 nM	363±23.0 ng/10 μL	24±4.4%
